From patent publication US20220202705A1, “THERMORESPONSIVE HYDROGEL CONTAINING POLYMER MICROPARTICLES FOR NONINVASIVE OCULAR BIOLOGIC DELIVERY” (University of Pittsburgh - Of the Commonwealth System of …, priority 2016, published 2022)
Values belong to the compound of their own block, whether it stands above or below them.

Legend:
[1] = 2 drops per day of 0.2% BT, 1-7% absorption, 0.66 mg brimonidine per mg BT
Procedure: Theoretical maximum and minimum amounts of BT absorption were also calculated as a basis for comparison for in vitro release from the BTMPs. This range was calculated by assuming a 50 μl drop and 2 drops administered per day at a rate of either 1% (minimum) or 7% (maximum) absorption (Ghate and Edelhauser, 2008). As the in vitro release methods measure base brimonidine and not the tartrate salt, a necessary conversion factor of 0.66 mg brimonidine for every 1 mg BT was incorporated in these calculations (Acheampong et al., 2002).

[2] = in vivo; cited from earlier work
[3] = system: New Zealand White rabbits; experiment: Post-mortem T1-weighted MRI 24 h after intravitreal injection of Gd-DOTA in thermoresponsive gel; assay type: in vivo, rabbit; conditions: in hydrogel
Procedure: Scans were performed within one hour of sacrifice. Soluble Gd-DOTA without MP encapsulation was largely cleared from the injection site at 24 h, with only 56% and 59% signal intensity (relative to nearby muscle tissue) in the vitreous and anterior chamber, respectively. […] The spatiotemporal distribution of Gd-DOTA into the rest of the eye will also provide valuable data for future controlled release formulations of other ocular therapeutics, such as those targeting the posterior segment of the eye.

[4] = Loading and release of other drugs from microparticles embedded in the gel; assay type: physicochemical
From the text: The loading and release of other drugs (moxiflxacin and vancomycin) with the microparticles embedded within the gel has also been confirmed.

[5] = In vitro NGF release from PLGA microspheres; assay type: physicochemical; conditions: FIG. 15
Procedure: 1. Prepare aqueous solution of NGF in DI water at 100 ug/ml concentration
2. Add 200 ul of this NGF solution to 4 ml dichloromethane/PLGA solution (using 200 mg of desired PLGA—for microspheres in FIG. 1 this was acid terminated 50:50 lactic:glycolic MW=7-17,000 Da viscosity=0.16-0.24 dl/g)
3. Sonicate for 10 s at 25% amplitude
4. Immediately add to 60 ml of 2% PVA solution and homogenize at 2300 rpm for 1 min
5. Add to 80 ml of 1% PVA solution and stir at 600 rpm for 3 h
6. Wash 4 times (each wash: centrifuge 5-10 min at 1000 rpm, decant, resuspend in DI water)
7. Freeze under liquid N2 and place on lyophilizer until all water is gone
1. Add microspheres (10 mg microspheres/100 ul gel) just prior to use and gently mix to suspend homogeneously.

therapeutic levels (theoretical brimonidine absorbed) [1]: 0.53 to 3.7 µg/day
Compound: Brc1c(NC2=NCCN2)ccc2nccnc12 [Brimonidine, brimonidine]

Compound: O=C([O-])CN(CCN(CC(=O)[O-])CC(=O)O)CCN(CC(=O)[O-])CC(=O)O.[Gd+3] [Gd-DTPA]
ocular half-life [2]: 28.08 min

signal intensity relative to muscle, anterior chamber [3]: 59%
signal intensity relative to muscle, vitreous [3]: 56%
Compound: O=C([O-])CN1CCN(CC(=O)[O-])CCN(CC(=O)O)CCN(CC(=O)[O-])CC1.[Gd+3] [Soluble Gd-DOTA, gadolinium-tetraazocyclododecanetetraacetic acid]

Compound: CN[C@H](CC(C)C)C(=O)N[C@H]1C(=O)N[C@@H](CC(N)=O)C(=O)N[C@H]2C(=O)N[C@H]3C(=O)N[C@H](C(=O)N[C@H](C(=O)O)c4cc(O)cc(O)c4-c4cc3ccc4O)[C@H](O)c3ccc(c(Cl)c3)Oc3cc2cc(c3O[C@@H]2O[C@H](CO)[C@@H](O)[C@H](O)[C@H]2O[C@H]2C[C@](C)(N)[C@H](O)[C@H](C)O2)Oc2ccc(cc2Cl)[C@H]1O [vancomycin]
loading and release with microparticles embedded within the gel [4]: confirmed

Compound: Brimonidine tartrate [BT]
ocular half-life [2]: 28.2 min

Compound: NGF: nerve growth factor, released from NGF-loaded PLGA microspheres
duration of NGF release [5]: approximately one week
